Results reported in ChEMBL document CHEMBL1128634, “Piperidine-ether based hNK1 antagonists 2: Investigation of the effect of N-substitution” (Bioorg Med Chem Lett, 1995).
Blank lines part the entries; values can stand above or below the compound they belong to.

Assays:
[1] = Inhibition of [3H]diltiazem binding to L-type calcium channel of rabbit skeletal muscle; assay type: functional, tissue-based, Oryctolagus cuniculus, Muscle tissue
[2] = Inhibition of [3H]diltiazem binding to L-type calcium channel of rabbit skeletal muscle at 30 uM; assay type: functional; conditions: Oryctolagus cuniculus, Muscle tissue
[3] = pKa value of the compound; assay type: physicochemical
[4] = Inhibition of [3H]diltiazem binding to L-type calcium channel of rabbit skeletal muscle at 5 uM; assay type: functional; conditions: Oryctolagus cuniculus, Muscle tissue
Substance-P receptor = Substance-P receptor (Homo sapiens, UniProt P25103); test: Displacement of [125I]- Substance P from human Neurokinin 1 (hNK1) receptor expressed in CHO cells; assay type: cell-based
Sequence of Substance-P receptor (P25103 whole entry): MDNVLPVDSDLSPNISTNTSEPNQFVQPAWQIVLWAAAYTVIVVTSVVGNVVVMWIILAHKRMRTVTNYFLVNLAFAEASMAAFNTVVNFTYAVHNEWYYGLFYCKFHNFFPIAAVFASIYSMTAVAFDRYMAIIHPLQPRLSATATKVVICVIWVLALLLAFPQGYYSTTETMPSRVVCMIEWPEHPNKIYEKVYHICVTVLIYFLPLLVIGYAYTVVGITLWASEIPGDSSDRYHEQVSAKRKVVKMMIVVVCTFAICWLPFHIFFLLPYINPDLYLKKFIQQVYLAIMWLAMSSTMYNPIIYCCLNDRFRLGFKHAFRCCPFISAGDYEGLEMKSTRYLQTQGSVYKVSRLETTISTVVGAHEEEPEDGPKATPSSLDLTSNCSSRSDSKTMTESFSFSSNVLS

Neuromedin-K receptor = target: T1, Neuromedin-K receptor (Homo sapiens, UniProt P29371); test: Tested for inhibition of human Tachykinin receptor 3
T1 sequence (P29371 whole entry): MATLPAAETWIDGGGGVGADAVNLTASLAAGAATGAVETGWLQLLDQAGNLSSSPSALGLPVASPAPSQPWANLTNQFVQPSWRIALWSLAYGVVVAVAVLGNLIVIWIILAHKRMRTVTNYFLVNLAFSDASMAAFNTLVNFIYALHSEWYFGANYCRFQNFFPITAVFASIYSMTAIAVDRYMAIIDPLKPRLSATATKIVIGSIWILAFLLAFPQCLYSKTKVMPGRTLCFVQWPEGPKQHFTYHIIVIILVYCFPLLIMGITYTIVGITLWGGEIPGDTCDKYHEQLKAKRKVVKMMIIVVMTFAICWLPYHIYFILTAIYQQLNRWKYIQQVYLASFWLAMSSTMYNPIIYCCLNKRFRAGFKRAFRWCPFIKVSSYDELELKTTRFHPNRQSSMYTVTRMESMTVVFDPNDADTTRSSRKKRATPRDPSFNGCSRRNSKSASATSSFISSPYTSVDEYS

Substance-K receptor = target: T2, Substance-K receptor (Homo sapiens, UniProt P21452); test: Tested for inhibition of human Neurokinin Tachykinin receptor 2.
T2 sequence (P21452 whole entry): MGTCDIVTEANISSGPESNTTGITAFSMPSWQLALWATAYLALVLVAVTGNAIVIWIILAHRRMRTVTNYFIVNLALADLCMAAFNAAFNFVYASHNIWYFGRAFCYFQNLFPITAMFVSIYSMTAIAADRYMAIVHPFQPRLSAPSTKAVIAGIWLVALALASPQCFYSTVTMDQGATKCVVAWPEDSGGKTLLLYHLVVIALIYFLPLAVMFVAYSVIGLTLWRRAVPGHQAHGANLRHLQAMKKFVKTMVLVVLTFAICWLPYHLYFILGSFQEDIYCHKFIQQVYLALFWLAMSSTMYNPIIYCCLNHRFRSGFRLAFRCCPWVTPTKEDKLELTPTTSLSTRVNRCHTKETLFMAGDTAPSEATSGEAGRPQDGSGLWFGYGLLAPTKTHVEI

IC50 [1]: 720 nM
Structure (SMILES): CN1CCC[C@H](OCc2cc(C(F)(F)F)cc(C(F)(F)F)c2)[C@@H]1c1ccccc1

pKa [3]: 5.4
Structure (SMILES): NC(=O)CN1CCC[C@H](OCc2cc(C(F)(F)F)cc(C(F)(F)F)c2)[C@@H]1c1ccccc1
inhibition at 30 µM [2]: 16%

Structure (SMILES): CN(C)C(=O)CN1CCC[C@H](OCc2cc(C(F)(F)F)cc(C(F)(F)F)c2)[C@@H]1c1ccccc1
inhibition at 5 µM [4]: 0%

IC50 (Substance-P receptor): 227 nM
Structure (SMILES): COc1ccccc1CN[C@H]1CCCN(CC(N)=O)[C@H]1c1ccccc1 (racemic)

IC50 [1]: 4.1 nM
Structure (SMILES): FC(F)(F)c1cc(CO[C@H]2CCCN(Cc3ccccc3)[C@H]2c2ccccc2)cc(C(F)(F)F)c1

Structure (SMILES): CNC(=O)CN1CCC[C@H](OCc2cc(C(F)(F)F)cc(C(F)(F)F)c2)[C@@H]1c1ccccc1
inhibition at 5 µM [4]: 0%

IC50 [1]: 26 nM
Structure (SMILES): COC(=O)CN1CCC[C@H](OCc2cc(C(F)(F)F)cc(C(F)(F)F)c2)[C@@H]1c1ccccc1

pKa [3]: 6.5
Structure (SMILES): NC(=O)CCN1CCC[C@H](OCc2cc(C(F)(F)F)cc(C(F)(F)F)c2)[C@@H]1c1ccccc1
inhibition at 5 µM [4]: 98%

IC50 (Substance-P receptor): 25 nM
Structure (SMILES): NC(=O)C(=O)N1CCC[C@H](OCc2cc(C(F)(F)F)cc(C(F)(F)F)c2)[C@@H]1c1ccccc1
inhibition at 5 µM [4]: 0%

Structure (SMILES): COC(=O)C(=O)N1CCC[C@H](OCc2cc(C(F)(F)F)cc(C(F)(F)F)c2)[C@@H]1c1ccccc1
inhibition at 5 µM [4]: 0%

IC50 (Neuromedin-K receptor): > 1000 nM | IC50 (Substance-K receptor): > 1000 nM | IC50 (Substance-P receptor): 0.87 nM | IC50 [1]: 760 nM
Structure (SMILES): FC(F)(F)c1cc(CO[C@H]2CCCN[C@H]2c2ccccc2)cc(C(F)(F)F)c1

Structure (SMILES): O=C(O)CN1CCC[C@H](OCc2cc(C(F)(F)F)cc(C(F)(F)F)c2)[C@@H]1c1ccccc1
inhibition at 5 µM [4]: 7%

Structure (SMILES): CC(=O)N1CCC[C@H](OCc2cc(C(F)(F)F)cc(C(F)(F)F)c2)[C@@H]1c1ccccc1
inhibition at 5 µM [4]: 0%

Structure (SMILES): NC(=O)CCCN1CCC[C@H](OCc2cc(C(F)(F)F)cc(C(F)(F)F)c2)[C@@H]1c1ccccc1
inhibition at 5 µM [4]: 98%
